Legend:
Edg-6 [1] = molecular target: T1, Edg-6 (Homo sapiens, UniProt O95977); conditions: cited from earlier work; for increase in cytosolic Ca(2+) concentration: Edg-6-transfected CHO cells compared with vector-transfected cells
T1 construct: host or cells: Edg-6-transfected Chinese hamster ovary (CHO) cells and K562 cells
T1 sequence (O95977 1-384): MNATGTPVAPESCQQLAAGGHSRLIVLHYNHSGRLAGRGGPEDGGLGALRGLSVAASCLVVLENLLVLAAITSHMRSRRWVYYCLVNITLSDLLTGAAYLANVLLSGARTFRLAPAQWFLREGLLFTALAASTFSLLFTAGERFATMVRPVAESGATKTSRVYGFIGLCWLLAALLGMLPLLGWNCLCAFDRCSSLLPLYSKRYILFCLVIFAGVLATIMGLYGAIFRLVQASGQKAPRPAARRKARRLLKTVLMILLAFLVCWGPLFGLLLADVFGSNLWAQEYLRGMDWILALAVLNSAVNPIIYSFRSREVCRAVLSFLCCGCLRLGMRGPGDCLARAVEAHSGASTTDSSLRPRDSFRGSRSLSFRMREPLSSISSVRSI

Edg-6 [2] = molecular target: T1, Edg-6; conditions: Edg-6-transfected CHO and K562 cells; cited from earlier work
[3] = system: HEL/EDG6 platelet-like particles; assay: PF4 release from platelet-like particles; format: cell-based, human; conditions: 100 nM PMA or 50 μM ADP 10 min; 0.5 units/ml thrombin 2 min; data not shown
Method: During propagation of HEL/EDG6, we observed an accumulation of small particles in the culture supernatant. They were harvested by two-step sedimentation centrifugation and analyzed. […] In order to investigate if the platelet-like particles were functional, they were stimulated and the release of Platelet Factor IV (PF4) was measured as a platelet functional marker. […] The low sensitivity to ADP raised a question about the full functionality of the particles as platelets. In order to examine whether it is due to lack of the appropriate ADP receptors, we performed RT-PCR analysis. There are two ADP receptors identified in platelets, ubiquitous P2Y1, and platelet-specific P2Y12. We detected P2Y1 expression in HEL cells stably transformed with an empty vector (HEL/CV), HEL/EDG6, and platelets. In contrast, P2Y12 was detected in HEL/EDG6 and platelets, but not in HEL/CV. […] The low responsiveness of the particles to ADP thus is likely due to desensitization of the ADP receptors, since the particles were prepared from a long-term culture and had been inevitably exposed to cellular components during culture. Alternatively the density of the particles may not have been high enough to exert a positive feedback amplified by mediators released from nearby particles.
Isolation of platelets and platelet-like particles: Blood from healthy donors was collected into centrifuge tubes containing 20 mM sodium dyhydrogenphosphate dehydrate, 17 mM citric acid, 90 mM sodium citrate, and 13 mM Dextrose. HEL/S1P4 cells were cultured until cells released cytoplasmic particles (typically 10-18 days). Preparations were centrifuged at 200 g for 15 minutes. Supernatants obtained were centrifuged at 1600 g for 15 minutes. Sediments containing platelets or platelet-like particles were used in the experiments.
PF4 release: Platelet-like particles were suspended in Dulbecco's modified Eagle medium (DMEM) and stimulated with 100 nM PMA or 50 μM ADP for 10 minutes. […] Platelet factor 4 in supernatants was measured with ZymutestPF4 enzyme-linked immunosorbent assay (Hyphen BioMed, France).

HEL cells = assay: morphogenesis assay, HEL parental cells; format: cell-based, human; conditions: PMA 10 nM, 72 hours
Source text: Small particles (arrowhead) and a particle about to bud off from the cytosolic extension (arrow) are seen in HEL/S1P4 treated with PMA.
As reported, HEL parental cells develop into polyploidal large adherent cells with PMA treatment. […] Depositions of small particles and particles about to bud off from the end of the projections were also observed (FIG. 7). […] The observed prominent change of phenotype, thus can potentially be attributed to a rapid accumulation of S1P after treatment of PMA. As PMA is a pleiotropic substance, it is not easy to elucidate direct roles of sphingosine kinase in the phenomena.
Morphogenesis assay: Ten million cells were plated on a 24-well plate with or without 30 μM of the Rho-kinase inhibitor Y27632 (Calbiochem, CA). PMA (10 nM final) was added to the culture 30 minutes after plating. Cells were cultured for 72 hours and photographed. For studies using C3 exoenzyme, 2×10^5 cells in 0.5 ml culture medium were plated on a 24-well plate with or without 3 μg/ml of C3 exsoenzyme (Upstate, N.Y.), and cultured overnight. Fresh culture medium containing PMA and C3 exoenzyme was added to each well to give final PMA and C3 exoenzyme concentrations at 10 nM and 3 μg/ml, respectively. Cells were cultured for 72 hours and photographed.

HEL/EDG6 cells [4] = assay: morphogenesis assay, HEL/EDG6; format: cell-based, human; conditions: 72 hours
Method: (§1) To obtain an insight into potential mechanisms, we treated HEL/EDG6 and HEL/CV with a variety of cytoskeletal modulators in the presence of PMA. […] To test if suppression of the Rho-kinase pathway is responsible for the formation of cytosolic extensions, the cells were treated with C3 exoenzyme, a Rho inhibitor, before PMA treatment. […] Alternatively, activation of other Rho family GTPases might cause the process formation, since reciprocal regulation between Rho and Rac/Cdc42 is observed in some cell types [E. E. Sandera, et al., (1999)]. Activation of Rho, Rac, and Cdc42, were investigated in HEL/CV and HEL/EDG6 after serum starvation and subsequent stimulation with S1P.

HEL/CV cells [5] = assay: Rho, Rac and cdc42 assays, HEL/CV; format: cell-based, human; conditions: serum starvation, 1 μM S1P 1 minute
Method: as §1
(§2) Rho, Rac and cdc42 assays: Cells (5×10^6 for Cdc42 and Rac, 1×10^7 for Rho) were harvested and lysed with 50 mM Tris (pH 7.5), 100 mM NaCl, 1% Triton X-100, 5 mM MgCl2 containing protease inhibitors (Complete™, EDTA-free, Roche Diagnostics, Germany). Cell lysates were clarified by centrifugation at 15000 g at 4° C. for 5 minutes, and incubated with PAK-1 PBD agarose, Rhotekin RBD agarose (Upstate, N.Y.) and GST-WASP GBD beads idndly provided by Tatsuo Kinashi, Kyoto University) at 4° C. for 45 minutes with constant rotation. […] The amounts of Rho, Rac, cdc42, and WASP in 20 μg of whole cell lysates were also analyzed by Western Blot. After incubating with HRP-conjugated secondary antibodies, the blots were developed with ECL-Plus (Amersham Biosciences, UK). For examination of Rho, Rac and cdc42 responses to S1P treatment, cells were maintained in RPMI1640 containing 0.1% fatty-acid free BSA (Sigma) overnight. Cells were harvested and suspended in PBS, and stimulated with 1 μM S1P at 37° C. for 1 minute before cell lysis. Rho, Rac, and cdc42 in 20 μg of the whole cell lysates were also analyzed by Western blot for examination of protein expression. WASP in 20 μg of the whole cell lysates was detected using an anti-WASP antibody (Sigma, Mo.).

[6] = system: CD34+ hematopoietic progenitor cells; assay: megakaryocyte colony formation assay; format: cell-based, human
Method: Mean colony number per well of CD41 positive (CFU-MK) and negative (non-MK) colonies are plotted with SD (n=4 to 8, left panels). […] The experiment was repeated twice with each progenitor and obtained similar results. # • (B) Megakaryocyte differentiation was induced for 12 days from the CD34^+ progenitor cells and the cells were separated for CD41 expression. RNAs from non-differentiated cells (Day 0), differentiated cells (Day 12), and peripheral platelets were analyzed for expression of S1P receptors by RT-PCR. Expression of 2-microglobulin is shown as an internal control.
S1P was added to a megakaryocyte colony formation assay using CD34^+ hematopoietic progenitor cells in semi-solid culture. […] In order to examine the expression pattern of each S1P receptor during the in vitro maturation of megakaryocytes, CD34^+ progenitor cells were cultured in a liquid medium defined for megakaryocyte development, sorted for CD41 expression on day 12 of the culture, and subjected to RT-PCR analysis. Expression of S1P5 receptor in CD34^+ cells on day 0 was low and S1P1, S1P2, S1P3, and EDG6 were not detectable after 40 cycles (FIG. 6B). […] The pattern matched, although with different relative band intensities for EDG6 and S1P2, with the one seen in the platelet sample. […] The exact mechanisms by which S1P affects the differentiation however, remain to be elucidated. Among the receptors for S1P, we were most interested in the function of EDG6 in megakaryocytopoiesis, because EDG6 is expressed in the lung, and the lung is the second most prominent site of platelet production in body with a large population of terminally differentiated megakaryocytes in pulmonary microvessels. […]
Colony formation assay and preparation of CD41^+ cells: Cord blood CD34^+ cells and bone marrow CD34^+ cells (Bio Whittaker, Md.) were cultured in serum-free Iscove's modified Dulbecco's medium for 2 days. […] The chambers were incubated at 37° C. in a 5% CO2 atmosphere for 12 days then megakaryocyte colonies (CFU-MK) were stained for CD41 and scored following the manufacturer's procedure. […]

HEL/EDG6 cells [7] = assay: Rho, Rac and cdc42 assays, HEL/EDG6; format: cell-based, human; conditions: HEL/EDG6, serum starvation, 1 μM S1P 1 minute
Method: as §1, §2

HEL/CV cells [8] = assay: morphogenesis assay, HEL/CV; format: cell-based, human; conditions: with PMA 10 nM, Y27632 30 μM or C3 exoenzyme 3 μg/ml, 72 hours
Method: as §1

lysophosphatidic acid [LPA]
increase in cytosolic Ca(2+) concentration (Edg-6 [1]): without change
displacement of [(3)H]S1P binding (Edg-6 [2]): inactive

pertussis toxin
effect on lipid-induced actions (S1P, SPC) (Edg-6 [1]; CHO and K562 cells expressing Edg-6, pertussis toxin treatment): markedly suppressed

CCCCCCCCCCCCCC(=O)O[C@@H]1[C@@H](C)[C@@]2(O)[C@@H](C=C(CO)C[C@]3(O)C(=O)C(C)=C[C@@H]23)[C@@H]2C(C)(C)[C@]12OC(C)=O [PMA]
release of Platelet Factor IV (PF4) [3]: significant amounts
cell morphology after PMA treatment (HEL cells): induced large adherent cells
cell morphology after PMA treatment (HEL/EDG6 cells [4]; HEL/EDG6, PMA 10 nM): formation of polyploidal large adherent cells with extended cytoplasmic projections resembling megakaryocyte processes

CCCCCCCCCCCCC/C=C/[C@@H](O)[C@@H](N)COP(=O)(O)O [S1P, sphingosine 1-phosphate]
GTP-Rac (HEL/CV cells [5]): up-regulation
GTP-Cdc42 increase (HEL/CV cells [5]; data not shown): not in HEL/CV cells
GTP-Rho decrease (HEL/CV cells [5]; data not shown): not in HEL/CV cells
number of megakaryocyte colony forming units (CFU-MK) ([6]; 10 μM S1P at beginning of culture, CD34+ cells from bone marrow and cord blood, 12 days): significantly reduced
CFU-nonMK numbers ([6]; 10 μM S1P, CD34+ cells from bone marrow and cord blood): remained unchanged or increased slightly
% CFU-MK ([6]; 10 μM S1P, cord blood or bone marrow CD34+ cells, Student's t-test): Significantly lower
increase in cytosolic Ca(2+) concentration (Edg-6 [1]): clearly enhanced
displacement of [(3)H]S1P binding (Edg-6 [2]): displaced the [(3)H]S1P binding
GTP-Rac (HEL/EDG6 cells [7]): up-regulation
GTP-Cdc42 (HEL/EDG6 cells [7]; data not shown): increased
GTP-Rho (HEL/EDG6 cells [7]; data not shown): decreased

thrombin
release of Platelet Factor IV (PF4) [3]: significant amounts

CCCCCCCCCCCCC/C=C/[C@@H](O)[C@@H](N)COP(=O)([O-])OCC[N+](C)(C)C [SPC]
increase in cytosolic Ca(2+) concentration (Edg-6 [1]): clearly enhanced
displacement of [(3)H]S1P binding (Edg-6 [2]): displaced the [(3)H]S1P binding

Nc1ncnc2c1ncn2[C@@H]1O[C@H](COP(=O)(O)OP(=O)(O)O)[C@@H](O)[C@H]1O [ADP]
release of Platelet Factor IV (PF4) [3]: only minor amounts

C[C@@H](N)[C@H]1CC[C@H](C(=O)Nc2ccncc2)CC1 [Y27632]
cytosolic extensions / morphology with cytoskeletal modulator (HEL/CV cells [8]): induced cytosolic extensions
cytosolic extensions / morphology with cytoskeletal modulator (HEL/EDG6 cells [4]; HEL/EDG6, with PMA 10 nM, Y27632 30 μM or C3 exoenzyme 3 μg/ml): did not induce any further effect
